Data set [1] has as its system MDA-MB-436 subcutaneous transplanted tumor. Put plainly: Mouse MDA-MB-436 subcutaneous in vivo transplanted tumor model.
Experimental: Human breast cancer MDA-MB-436 cells were placed in Leibovitz's L-15 medium (supplemented with 10 μg/mL insulin, 16 μg/mL glutathione, 10% fetal bovine serum and 1% double antibody) and cultured at 37° C. Conventional digestion treatment with trypsin was carried out twice a week for passage. When the cell saturation was 80%-90%, and the number reached the requirement, the cells were collected, counted, and inoculated. BALB/c nude mice (from Beijing Vital River Laboratory Animal Technology Co., Ltd.) were subcutaneously inoculated with 0.2 mL (10×10^6) of MDA-MB-436 cells (plus matrigel, with the volume ratio of 1:1) on the right back. When the average tumor volume reached about 180 mm^3, grouping and administration were performed (marked as Day 0). […] The administration frequency was once a day, the administration cycle was 29 days, and the drug withdrawal observation period was set to 14 days. After grouping, the tumor diameter was measured twice a week with a vernier caliper. The formula for calculating the tumor volume was: V=0.5×a×b^2, where a and b represented the long and short diameters of the tumor, respectively.
In data set [2] the test system is Human breast cancer MDA-MB-231 cells. Put plainly: MDA-MB-231 cell proliferation inhibition test (CellTiter-Glo, 7 days). Format: cell-based. Particulars: MDA-MB-231, 168 h, 7 days incubation. As for the experimental part: (§1) The cells in the exponential growth phase were collected, and the cell suspension was adjusted to 1500 cells/135 μL with the culture medium. 135 μL of the cell suspension was added to each well of a 96-well cell culture plate and incubated overnight. On day 2, compounds at different concentrations were added, and the plate was placed in the incubator and incubated for 7 days. After the incubation was completed, according to operation instructions for a CellTiter-Glo kit (Promega, Cat #G7573), 75 μL of CTG solution, which was already pre-melted and equilibrated to room temperature, was added to each well, and the mixture was uniformly mixed for 2 min using a microplate shaker. The plate was placed at room temperature for 10 min, and then […] signal values were measured using an Envision 2104 plate reader (PerkinElmer).
For orientation: ATP-based viability assays read luminescence as a measure of living cells.

The nature of data set [3]: Pharmacokinetic test in rats. Particulars: male SD rats. The class given is in vivo, rat. The method, then:
• 1.1 Experimental animals: male SD rats, about 220 g, 6-8 weeks old, 6 rats/compound, purchased from Chengdu Ddossy Experimental Animals Co., Ltd. • 1.2 Experimental design: on the day of the test, 6 SD rats were randomly grouped according to their body weight; the animals were fasted with water available for 12 to 14 h one day before the administration, and were fed 4 h after the administration.
Before and after the administration, 0.15 mL of blood was taken from the orbit of the animals under isoflurane anesthesia and placed in an EDTAK2 centrifuge tube. The blood was centrifuged at 5000 rpm and 4° C. for 10 min to collect plasma. The blood collection time points for the intravenous administration group and intragastric administration group were: 0, 5 min, 15 min, 30 min, 1 h, 2 h, 4 h, 6 h, 8 h, and 24 h. Before analysis and detection, all samples were stored at −80° C. The samples were analyzed quantitatively by LC-MS/MS.

The target of data set [4] is PARP5B (Homo sapiens (Human), UniProt Q9H2K2). The data set is described as follows: PARP5B enzyme activity test. Format: biochemical.
Chain of PARP5B (Q9H2K2 667-1166 limits assumed): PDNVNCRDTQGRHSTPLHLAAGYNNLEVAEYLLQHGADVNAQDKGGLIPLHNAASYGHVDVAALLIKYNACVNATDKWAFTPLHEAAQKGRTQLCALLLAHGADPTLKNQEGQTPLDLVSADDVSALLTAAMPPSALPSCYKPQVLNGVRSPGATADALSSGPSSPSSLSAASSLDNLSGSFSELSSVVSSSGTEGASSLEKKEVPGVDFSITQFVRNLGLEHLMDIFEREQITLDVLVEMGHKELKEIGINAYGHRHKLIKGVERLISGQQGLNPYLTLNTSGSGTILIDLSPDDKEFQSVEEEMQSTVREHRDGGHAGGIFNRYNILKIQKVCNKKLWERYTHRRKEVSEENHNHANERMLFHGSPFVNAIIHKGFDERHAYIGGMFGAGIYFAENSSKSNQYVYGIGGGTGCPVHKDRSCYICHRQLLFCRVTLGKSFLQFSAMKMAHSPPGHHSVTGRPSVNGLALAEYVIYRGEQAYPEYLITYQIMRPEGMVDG
Experimental: (§2) PARP2, PARP5A, PARP5B, PARP6, PARP7, PARP14 and PARP15 chemical fluorescence detection kits were purchased from BPS Bioscience. The histone solution in the kit was diluted 5× with 1×PBS, and 25 μL of the diluted histone solution was added to a microwell plate and incubated overnight at 4° C. After the incubation, the plate was washed three times with PBST (0.05% Tween-20). 100 μL of the blocking solution was added to the microwell plate and incubated at 25° C. for 90 minutes. After the incubation, the plate was washed three times with PBST. […] 5 μL of the diluted PARP enzyme was added to the microwell plate, and the reaction system was incubated at 25° C. for 60 minutes.
(§3) After the incubation, the plate was washed three times with PBST. Streptavidin-HRP was diluted 50× with a blocking solution, and 25 μL of the diluent was added to the microwell plate and incubated at 25° C. for 30 minutes. After the incubation, the plate was washed three times with PBST. ELISA ECL substrate A and substrate B were mixed at a ratio of 1:1 (v/v), 25 μL of the mixture was added to the microwell plate, and the chemiluminescence value was read.
(§4) Curve fitting was performed by four parameters (log(inhibitor) vs. response—Variable slope) using GraphPad Prism software, and the IC50 value was calculated.
Data set [5] deals with PARP5A (Homo sapiens (Human), UniProt O95271). Put plainly: PARP5A enzyme activity test. Format: biochemical.
Chain of PARP5A (O95271 1001-1327 limits assumed): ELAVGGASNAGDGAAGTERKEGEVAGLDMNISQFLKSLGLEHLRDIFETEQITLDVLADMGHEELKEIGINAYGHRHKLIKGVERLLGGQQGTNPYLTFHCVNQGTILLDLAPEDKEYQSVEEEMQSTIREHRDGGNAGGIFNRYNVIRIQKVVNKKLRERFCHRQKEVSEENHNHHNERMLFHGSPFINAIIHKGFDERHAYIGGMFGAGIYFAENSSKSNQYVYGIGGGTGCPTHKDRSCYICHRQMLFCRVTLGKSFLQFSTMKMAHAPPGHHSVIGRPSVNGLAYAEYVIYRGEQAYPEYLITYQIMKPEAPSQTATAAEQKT
Experimental: as §2, §3, §4
The target of data set [6] is PARP15 (Homo sapiens (Human), UniProt Q460N3). The data set is described as follows: PARP15 enzyme activity test. The class given is biochemical.
Chain of PARP15 (Q460N3 whole entry): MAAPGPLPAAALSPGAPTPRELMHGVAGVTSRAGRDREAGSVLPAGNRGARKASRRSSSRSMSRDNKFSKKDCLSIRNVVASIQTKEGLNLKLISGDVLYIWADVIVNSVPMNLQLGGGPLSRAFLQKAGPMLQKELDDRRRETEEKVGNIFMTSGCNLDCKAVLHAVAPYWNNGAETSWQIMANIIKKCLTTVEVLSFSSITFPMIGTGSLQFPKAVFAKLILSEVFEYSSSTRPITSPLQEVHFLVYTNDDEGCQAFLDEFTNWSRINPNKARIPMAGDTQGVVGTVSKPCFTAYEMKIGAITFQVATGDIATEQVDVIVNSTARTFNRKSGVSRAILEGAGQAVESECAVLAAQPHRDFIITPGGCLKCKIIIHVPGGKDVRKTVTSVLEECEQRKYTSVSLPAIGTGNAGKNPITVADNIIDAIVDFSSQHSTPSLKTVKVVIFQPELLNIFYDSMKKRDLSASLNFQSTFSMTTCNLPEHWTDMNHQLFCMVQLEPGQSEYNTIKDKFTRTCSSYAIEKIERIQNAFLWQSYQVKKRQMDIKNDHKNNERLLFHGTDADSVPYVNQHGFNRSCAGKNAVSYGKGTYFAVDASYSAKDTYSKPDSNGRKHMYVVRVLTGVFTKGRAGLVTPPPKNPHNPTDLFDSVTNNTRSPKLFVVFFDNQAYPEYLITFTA
Experimental: as §2, §3, §4
Data set [7] addresses PARP7 (Homo sapiens (Human), UniProt Q7Z3E1). Put plainly: PARP7 enzyme activity test. Format: biochemical.
Experimental: as §2, §3, §4
Data set [8] concerns breast tumor cells MDA-MB-436. Put plainly: MDA-MB-436 cell activity test (CellTiter-Glo, 7 days). The class given is cell-based. Particulars: Homo sapiens, MDA-MB-436, 168 h, 7 days incubation; for inhibition at 10 µM: read-out: MDA-MB-436 Max inh. % 10 μM; for IC50: read-out: MDA-MB-436 cell inhibitory activity IC50. The method, then:
as §1, with “Breast tumor cells MDA-MB-436 were purchased from ATCC, the culture medium was Leibovitz's L-15+10% FBS, and the cells were cultured in a CO2-free incubator at 37° C. On day 1, the cells” for “The cells”, “to 4000” for “to 1500”, “(Promega, G7573),” for “(Promega, Cat #G7573),”, “an Envision2104” for “an Envision 2104”, “(PerkinElmer). The inhibition rate was calculated using formula (1), where RLUcompound was the readout of the drug treated group, RLUcontrol was the average value of the vehicle control group, and RLUblank was the average value of the cell-free well. The IC50 value was calculated using GraphPad Prism software.” for “(PerkinElmer).”

Data set [9] concerns the target PARP-1 enzyme (Homo sapiens (Human), UniProt P09874). The data set is described as follows: PARP1 enzyme activity test (BPS Bioscience chemiluminescence kit). Format: biochemical. From the text: Inhibition %=(1−(RLUsample−RLUmin)/(RLUmax−RLUmin))×100% (formula 1)
Where [10] appears, read: Sprague-Dawley (SD), rat, iv, i.v. 2.5 mg/kg, plasma.

Structures are written as SMILES.

Chain of PARP-1 enzyme (P09874 whole entry): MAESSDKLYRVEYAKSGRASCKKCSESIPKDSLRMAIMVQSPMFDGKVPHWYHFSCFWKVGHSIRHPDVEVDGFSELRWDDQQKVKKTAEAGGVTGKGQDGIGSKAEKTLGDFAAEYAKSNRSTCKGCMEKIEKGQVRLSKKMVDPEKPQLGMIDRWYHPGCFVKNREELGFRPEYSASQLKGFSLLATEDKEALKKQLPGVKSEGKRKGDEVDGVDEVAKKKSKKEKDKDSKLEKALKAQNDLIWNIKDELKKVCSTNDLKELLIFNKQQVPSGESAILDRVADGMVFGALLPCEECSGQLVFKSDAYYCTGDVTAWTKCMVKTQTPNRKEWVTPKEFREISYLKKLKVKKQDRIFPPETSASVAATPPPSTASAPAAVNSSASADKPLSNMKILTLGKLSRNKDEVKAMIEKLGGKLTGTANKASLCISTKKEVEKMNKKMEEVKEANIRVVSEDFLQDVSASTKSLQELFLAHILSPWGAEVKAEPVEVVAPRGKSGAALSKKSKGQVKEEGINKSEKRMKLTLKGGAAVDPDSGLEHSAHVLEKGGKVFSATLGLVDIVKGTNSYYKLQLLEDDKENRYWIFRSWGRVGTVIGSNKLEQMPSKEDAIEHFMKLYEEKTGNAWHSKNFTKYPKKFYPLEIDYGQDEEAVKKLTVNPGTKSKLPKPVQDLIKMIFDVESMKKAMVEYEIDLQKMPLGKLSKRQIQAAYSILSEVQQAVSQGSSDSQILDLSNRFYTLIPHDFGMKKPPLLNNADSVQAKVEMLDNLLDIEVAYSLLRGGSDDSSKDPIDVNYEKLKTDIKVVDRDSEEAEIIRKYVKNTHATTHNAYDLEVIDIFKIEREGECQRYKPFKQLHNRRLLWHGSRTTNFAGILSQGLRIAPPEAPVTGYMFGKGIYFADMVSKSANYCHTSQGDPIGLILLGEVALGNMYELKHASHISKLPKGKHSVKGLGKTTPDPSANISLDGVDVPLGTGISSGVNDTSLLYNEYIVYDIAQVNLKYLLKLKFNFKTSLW
Chain of PARP7 (Q7Z3E1 whole entry): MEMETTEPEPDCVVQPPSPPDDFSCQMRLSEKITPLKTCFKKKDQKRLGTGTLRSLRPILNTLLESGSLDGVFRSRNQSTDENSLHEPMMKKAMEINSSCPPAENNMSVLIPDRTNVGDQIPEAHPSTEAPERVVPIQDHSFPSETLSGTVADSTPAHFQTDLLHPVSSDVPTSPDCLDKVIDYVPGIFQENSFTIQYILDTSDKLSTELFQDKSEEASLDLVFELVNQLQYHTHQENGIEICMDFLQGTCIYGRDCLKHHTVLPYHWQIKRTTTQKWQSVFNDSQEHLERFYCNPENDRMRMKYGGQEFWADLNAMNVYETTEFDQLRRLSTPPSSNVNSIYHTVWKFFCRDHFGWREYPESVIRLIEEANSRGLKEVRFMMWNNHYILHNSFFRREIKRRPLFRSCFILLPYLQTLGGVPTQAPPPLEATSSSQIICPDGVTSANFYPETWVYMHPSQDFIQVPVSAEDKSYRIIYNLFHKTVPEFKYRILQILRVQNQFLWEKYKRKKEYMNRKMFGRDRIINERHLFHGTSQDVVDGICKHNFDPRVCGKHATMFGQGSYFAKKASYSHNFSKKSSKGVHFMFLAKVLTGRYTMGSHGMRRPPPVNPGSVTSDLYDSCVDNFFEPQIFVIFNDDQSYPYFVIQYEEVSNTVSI

For orientation: IC50 means the point on the concentration scale where inhibition reaches its midpoint. As usually defined, the AUC(0-t) is the area under the concentration-time curve up to a stated or last time point. A higher AUC(0-t) goes with more exposure. By clearance is commonly meant a measure of how efficiently the substance is removed, as volume per time. Higher therefore signals efficient removal. As to `CCc1cc2ncc(CN3CCN(c4ccc(C(=O)NC5CC5)nc4)CC3)cc2[nH]c1=O` [Compound 4, N-cyclopropyl-5-(4-((7-ethyl-6-oxo-5,6-dihydro-1,5-naphthyridin-3-yl)methyl)piperazin-1-yl)picolinamide], the “tumor growth after the drug withdrawal” value in data set [1] (14 days drug withdrawal observation period) is recorded as “did not grow again”. Moreover, in data set [1] (BALB/c nude mice, once a day, Day 0-10: 1 mg/kg, Day 11-28: 0.1 mg/kg), the “body weight of the animals” value was “no significant decrease in the body weight”. The TGI in data set [1] (BALB/c nude mice, once a day, Day 0-10: 1 mg/kg, Day 11-28: 0.1 mg/kg, after 28 days of administration) is on record as 119%. The inhibition at 10 µM in [2] (10 μM, read-out: MDA-MB-231 Max inh. % 10 μM) was 66.8%; in data set [8], 89.4%. Besides, the concentration for half-maximal inhibition (IC50) in [2] (BRCA WT cells, read-out: MDA-MB-231 cell inhibitory activity IC50) worked out at 15900 nM; in [4], 576 nM; in data set [5] it was 6080 nM; in [6], 4300 nM; in data set [7], 5360 nM; in [8], 2 nM. Also, the exposure AUC(0-t) in data set [3] (setting [10]) came to 46.6 ± 4.75 µg·h/mL; in [3] (Sprague-Dawley (SD), rat, po, i.g. 10 mg/kg, plasma) it was 184 ± 72.3 µg·h/mL. In data set [3] (setting [10]), this compound yielded a clearance of 0.896 ± 0.097 mL/min/kg. In addition, the Vd in data set [3] (Sprague-Dawley (SD), rat, iv, i.v. 2.5 mg/kg, plasma, read-out: Vdss) was found to be 0.236 ± 0.022 L/kg. In addition, the F in [3] (i.g. 10 mg/kg) was determined as 98.8 ± 39%.

For `CCc1cc2ncc(CN3CCN(c4ccc(C(=O)NCC5CC5)nc4)CC3)cc2[nH]c1=O` [Compound 40, N-(cyclopropylmethyl)-5-(4-((7-ethyl-6-oxo-5,6-dihydro-1,5-naphthyridin-3-yl)methyl)piperazin-1-yl)picolinamide], in [8], the inhibition at 10 µM is 99.3% and the half-inhibitory concentration (IC50) stood at 5.6 nM. Also, in [9], half-maximal inhibition (IC50) required 0.61 nM.

As to `CCc1cc2ncc(CN3CCN(c4ccc(C(=O)N[C@H]5C[C@H]5F)nc4)CC3)cc2[nH]c1=O` [Compound 41, 5-(4-((7-ethyl-6-oxo-5,6-dihydro-1,5-naphthyridin-3-yl)methyl)piperazin-1-yl)-N-((1S,2R)-2-fluorocyclopropyl)picolinamide], in [8], the inhibition at 10 µM came out at 92.1% and the IC50 stood at 2.3 nM. In data set [9], this compound had a 50% inhibitory concentration (IC50) of 0.84 nM.

For `CCc1cc2ncc(CN3CCN(c4ccc(-c5nnc(C)[nH]5)nc4)CC3)cc2[nH]c1=O` [Compound 42, 3-ethyl-7-((4-(6-(5-methyl-4H-1,2,4-triazol-3-yl)pyridin-3-yl)piperazin-1-yl)methyl)-1,5-naphthyridin-2 (1H)-one], in data set [8], the inhibition at 10 µM came out at 84.1% and the half-maximal inhibitory concentration (IC50) is 24.1 nM. This compound came in with an IC50 in [9] of 0.67 nM.

The values are drawn from US20240400586A1, “HETEROARYL DERIVATIVE PARP INHIBITOR AND USE THEREOF” (HAISCO PHARMACEUTICAL GROUP CO., LTD., priority 2021, published 2024).
